Assay results taken from patent US20200157048A1, “(2E,4E)-5-PHENYL-PENTA-2,4-DIEN-1-ONE DERIVATIVE” (BIOWAY., INC, priority 2018, published 2020).

Target: T1, SIRT1 (Homo sapiens, UniProt Q96EB6)
T1 construct: purchased Cayman (Ann Arbor, Mich., USA)
T1 sequence (Q96EB6 1-747): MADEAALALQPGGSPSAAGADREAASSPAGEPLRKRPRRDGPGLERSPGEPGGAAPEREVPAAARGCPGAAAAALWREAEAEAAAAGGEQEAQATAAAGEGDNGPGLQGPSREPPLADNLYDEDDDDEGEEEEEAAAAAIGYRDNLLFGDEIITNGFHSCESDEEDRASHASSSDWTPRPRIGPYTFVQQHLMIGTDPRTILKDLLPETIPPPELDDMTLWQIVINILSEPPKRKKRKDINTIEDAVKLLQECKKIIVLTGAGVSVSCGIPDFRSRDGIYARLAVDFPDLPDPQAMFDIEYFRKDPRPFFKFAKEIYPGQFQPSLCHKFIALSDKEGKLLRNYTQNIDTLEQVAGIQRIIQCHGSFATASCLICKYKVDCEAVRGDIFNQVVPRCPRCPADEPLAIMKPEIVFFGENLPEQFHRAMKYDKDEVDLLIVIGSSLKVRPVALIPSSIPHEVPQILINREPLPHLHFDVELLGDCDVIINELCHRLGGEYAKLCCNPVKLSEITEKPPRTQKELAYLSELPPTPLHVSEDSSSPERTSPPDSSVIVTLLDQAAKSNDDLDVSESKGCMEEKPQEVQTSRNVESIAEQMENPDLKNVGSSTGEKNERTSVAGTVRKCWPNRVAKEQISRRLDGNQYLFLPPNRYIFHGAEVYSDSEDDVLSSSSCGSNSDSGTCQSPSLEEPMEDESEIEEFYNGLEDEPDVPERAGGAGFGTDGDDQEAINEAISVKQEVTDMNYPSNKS
Assay: SIRT1 direct fluorescent assay
Format: biochemical
Settings: 20 μM
Protocol: All materials were provided from a Sirt1 direct fluorescent screening assay kit (Cayman, Ann Arbor, Mich., USA).
SIRT1, p53 conjugated aminomethyl coumarin (AMC) protein, and 3 mM NAD^+ were added to a diluted analysis buffer (50 mM Tris-HCl, pH 8.0, 137 mM NaCl, 2.7 mM KCl, and 1 mM MgCl2).
25 μL of the analysis buffer, 5 μL of diluted SIRT1, and 5 μL of a solvent were added to each of three 100% initial activity wells of a 96-well plate.
30 μL of the analysis buffer and 5 μL of a solvent were added to each of three background wells of the 96-well plate.
25 μL of the analysis buffer, 5 μL of diluted SIRT1, and 5 μL of a diluted test compound were added to each of three sample wells of the 96-well plate. The final DMSO concentration was less than 2%.
15 μL of a 3 mM NAD^+-containing substrate solution was added to all wells to begin the reaction. The 96-well plate was covered with a plate cover, and then incubated in a shaker at room temperature (25 to 30° C.) for 45 minutes.
A stop/developing solution was prepared. To prepare the final 5 mL solution, 200 μL of nicotinamide (NAM, Sigma-Aldrich) was added to a color developing powder weighing 30 mg, 4.8 mL of a diluted analysis buffer was added thereto, and the resulting mixture was stirred until the powder became a solution.
The plate cover was removed, and 50 μL of the stop/developing solution was added to each well.
The 96-well plate was covered with a plate cover, and incubated at room temperature (25 to 30° C.) for 30 minutes.
The plate cover was removed, and the plate was read using Cytation 5 at an excitation wavelength of 360 nm and an emission wavelength of 450 nm.
The mean fluorescence of each sample was measured.
The fluorescence of the background wells was subtracted from the fluorescence of the 100% initial activity wells and sample wells.
To determine the percent of each sample, each sample value was subtracted from the 100% initial activity value, and the resulting value was divided by the 100% initial activity value and then multiplied by 100 and added to 100, which was expressed as a percentage.

CSc1ccc(/C=C/C=C/C(=O)N2CCCCC2)cc1 [YU2014, (2E,4E)-5-(4-(methylthio)phenyl)-1-(piperidine-1-yl)penta-2,4-dien-1-one]
increase of SIRT1 activity (FIG. 18): about 20%
